Measurements as given in publication PMC5418449, “Characterisation of CCT271850, a selective, oral and potent MPS1 inhibitor, used to directly measure in vivo MPS1 inhibition vs therapeutic efficacy” (British Journal of Cancer, 2017).

Assays:
Parameters in all cases: 14-day clonogenic growth inhibition assay, human cancer cell line panel
Settings in all cases: 14-day clonogenic assay; inhibitor; read-out: Table S1. IC50 of CCT271850 determined by MTT and clonogenic assays (CA). / All cell lines were tested at least 2 times. / 14-day CA
[1] = system: CaoV3
Method: (§1) To evaluate CCT271850 antiproliferation effects in a large panel of human cancer cell lines, 91 cell lines were treated for 72 h and 14 days at different compound concentrations in growth inhibition assays. The growth inhibition values as measured by IC50 are summarised in Table 2 and Supplementary Table S1. […] Cell lines from colon and head and neck cancers were among the most sensitive.

[2] = system: SKOV3
Method: as §1

[3] = system: OAW42
Method: as §1

[4] = system: PATU-8902
Method: as §1

[5] = system: Miapaca-2
Method: as §1

[6] = system: PJ34
Method: as §1

[7] = system: PATU-8988T
Method: as §1

[8] = system: Lon-HN5
Method: as §1

[9] = system: Kuramochi
Method: as §1

[10] = system: CAL27
Method: as §1

[11] = system: PANC-1
Method: as §1

[12] = system: O13
Method: as §1

[13] = system: EF021
Method: as §1

[14] = system: SW626
Method: as §1

[15] = system: OAW28
Method: as §1

[16] = system: IGROV1
Method: as §1

[17] = system: Suit-2
Method: as §1

[18] = system: PATU-8988S
Method: as §1

[19] = system: EF027
Method: as §1

[20] = system: OVCAR5
Method: as §1

[21] = system: TYK-Nu
Method: as §1

[22] = system: RMG1
Method: as §1

[23] = system: PT45
Method: as §1

[24] = system: OVCAR3
Method: as §1

[25] = system: SMOV2
Method: as §1

[26] = system: PJ41
Method: as §1

[27] = system: 015B
Method: as §1

[28] = system: HN3
Method: as §1

[29] = system: TOV21G
Method: as §1

[30] = system: OVCAR4
Method: as §1

[31] = system: Det562
Method: as §1

[32] = system: KGN
Method: as §1

[33] = system: OVCAR8
Method: as §1

[34] = system: CFPAC-1
Method: as §1

[35] = system: A2780
Method: as §1

IC50 [2]: 58 nM
IC50 [5]: 68 nM
IC50 [11]: 74 nM
IC50 [14]: 32 nM
IC50 [20]: 82 nM
IC50 [24]: 99 nM
IC50 [30]: 62 nM
IC50 [33]: 101 nM
IC50 [35]: 105 nM
Structure (SMILES): COc1cc(-c2cnn(C)c2)ccc1Nc1ncc2ccnc(N[C@@H](C)C(C)(C)C)c2n1 [34h, CCT271850]
IC50 [1]: 75 nM
IC50 [3]: 57 nM
IC50 [4]: 28 nM
IC50 [6]: 35 nM
IC50 [7]: 87 nM
IC50 [8]: 44 nM
IC50 [9]: 34 nM
IC50 [10]: 4 nM
IC50 [12]: 21 nM
IC50 [13]: 72 nM
IC50 [15]: 61 nM
IC50 [16]: 48 nM
IC50 [17]: 87 nM
IC50 [18]: 110 nM
IC50 [19]: 37 nM
IC50 [21]: 73 nM
IC50 [22]: 42 nM
IC50 [23]: 59 nM
IC50 [25]: 14 nM
IC50 [26]: 0.8 nM
IC50 [27]: 59 nM
IC50 [28]: 5.2 nM
IC50 [29]: 7.8 nM
IC50 [31]: 46 nM
IC50 [32]: 106 nM
IC50 [34]: 63 nM
